The term EC50 denotes the midpoint of the concentration-response curve. Read a low EC50 as a more potent agent. Usually IC50 stands for the concentration at which inhibition is half-maximal. What is called Papp is a coefficient for how fast a substance crosses the barrier. Read a low Papp as poor permeation.

The results in this text go back to patent publication US10618903B2, “Heteroaryl substituted aminopyridine compounds” (BRISTOL-MYERS SQUIBB COMPANY, priority 2015, dated 2020).

Data set [1] relates to IL-6 levels in human whole blood stimulated with a TLR2 agonist. In words: IRAK4 Whole Blood Assay (lipoteichoic acid/TLR2-stimulated IL-6). The settings on record: lipoteichoic acid 10 μg/mL, IL-6 readout. In kind it is cell-based. The method in brief:
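IL-6 was quantified by cytometric bead assay in supernatants of human blood (ACD-A) stimulated for 5 h with lipoteichoic acid at 10 μg/mL final. Compound exposure preceded stimulation for 60 min at 37 °C, 5% CO2.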

For another data set, the target named is IRAK4 (Homo sapiens (Human), UniProt Q9NWZ3). In words: IRAK4 Inhibition Assay. It counts as biochemical. The following applies: ATP 500 μM; IRAK4 0.6 nM. The method in brief:
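Readout: electrophoretic (LabChip) separation of fluorescent peptide substrate from phosphorylated product after EDTA quench. Reactions ran 60 min at room temperature with 0.6 nM IRAK4, 1.5 μM peptide and 500 μM ATP; inhibition referenced to no-enzyme (100%) and vehicle (0%) controls.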

A short description of a further data set: Caco Permeability Assay. The settings on record: human, Caco-2, Caco-2 cells, 3 μM compound. It counts as in vitro ADME. On the procedure: Thirteen to 27 days prior to assay, Caco-2 cells were seeded onto collagen-coated polycarbonate filter membranes in 24-well transwell plates at a density of 1.45×10^5 cells/cm^2, approximately 4.8×10^4 cells per well. The cells were grown in a culture medium consisting of DMEM supplemented with 10% fetal bovine serum, 10 mM HEPES, 1% nonessential amino acids, 2 mM L-glutamine, 100 U/mL penicillin-G, and 100 μg/mL streptomycin. The culture medium was replaced every 3 days and the cells were maintained at 37° C. in a 95% relative humidity and 5% CO2 atmosphere. The cells were evaluated for tight junction formation just prior to assay. The test compound was solubilized to 10 mM in 100% DMSO and diluted to 3 μM in assay buffer. Permeability studies were initiated by adding 200 μL assay buffer plus/minus compound to the apical transwell compartment and 600 μL assay buffer plus/minus compound to the basolateral compartment of the 24-well transwell low-binding cluster plate. For apical-to-basolateral (A to B) permeability (absorptive direction), buffer containing compound was placed in the apical compartment (donor wells), while buffer alone was placed in the corresponding basolateral compartments (receiver wells). For basolateral-to-apical (B to A) permeability (secretive direction), buffer containing compound was placed in the basolateral compartment (donor wells), while buffer alone was placed in the corresponding apical compartments (receiver wells). Transwells were then incubated for 2 hours at 37° C. in a 95% relative humidity and 5% CO2 atmosphere with gentle agitation. Following incubation, 100 μL was removed from each apical and basolateral compartment and transferred to 96-well low binding plates that had been previously loaded with 100 µL/well of acetonitrile containing 250 nM propranolol, 250 nM diclofenac, and 500 nM tolbutamide as internal standards. The samples were subsequently analyzed by LC-MS/MS to determine concentrations of compound.

Chain of IRAK4 (Q9NWZ3 whole entry): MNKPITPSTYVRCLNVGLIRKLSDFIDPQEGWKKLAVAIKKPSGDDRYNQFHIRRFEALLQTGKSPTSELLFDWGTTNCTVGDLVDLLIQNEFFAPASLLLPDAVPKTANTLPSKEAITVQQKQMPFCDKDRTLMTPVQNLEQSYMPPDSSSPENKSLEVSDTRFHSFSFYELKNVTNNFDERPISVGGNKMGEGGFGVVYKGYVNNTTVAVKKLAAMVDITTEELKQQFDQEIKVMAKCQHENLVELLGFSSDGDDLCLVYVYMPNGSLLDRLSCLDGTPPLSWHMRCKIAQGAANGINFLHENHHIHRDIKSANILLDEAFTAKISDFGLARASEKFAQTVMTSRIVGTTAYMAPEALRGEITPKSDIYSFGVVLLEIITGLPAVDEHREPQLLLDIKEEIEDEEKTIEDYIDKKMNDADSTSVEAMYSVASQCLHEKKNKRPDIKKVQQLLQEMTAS

Compound `CC(C)(O)[C@H](F)CNC(=O)c1cnc(-c2cnn3cc(C#N)cnc23)cc1NC1CC1` [Example 92, (R)-6-(6-cyanopyrazolo[1,5-a]pyrimidin-3-yl)-4-(cyclopropylamino)-N-(2-fluoro-3-hydroxy-3-methylbutyl) nicotinamide] returned an EC50 in data set [1] (Homo sapiens) of 720 nM. Besides, the IC50 at IRAK4 turned out to be 20 nM. Moreover, in “Caco Permeability Assay”, the apparent permeability (Papp) at 2 h, 3 µM worked out at 7.4 ×10⁻⁶ cm/s.

`CCNc1cc(-c2cnn3cc(C#N)cnc23)ncc1C(=O)NC[C@@H](F)C(C)(C)O` [Example 93, (R)-6-(6-cyanopyrazolo[1,5-a]pyrimidin-3-yl)-4-(ethylamino)-N-(2-fluoro-3-hydroxy-3-methylbutyl)nicotinamide] showed an EC50 in data set [1] (Homo sapiens) of 1660 nM. Also, the IC50 on IRAK4 is 6 nM. Besides, the Papp at 2 h, 3 µM in “Caco Permeability Assay” came out at 7.2 ×10⁻⁶ cm/s.

Compound `CC[C@@H](C)Nc1cc(-c2cnn3cc(C#N)cnc23)ncc1C(=O)NC[C@@H](F)C(C)(C)O` [Example 97, 4-(((R)-sec-butyl)amino)-6-(6-cyanopyrazolo[1,5-a]pyrimidin-3-yl)-N—((R)-2-fluoro-3-hydroxy-3-methylbutyl)nicotinamide] registered a 50% effective concentration (EC50) in data set [1] (Homo sapiens) of 1600 nM. Besides, the half-inhibitory concentration (IC50) on IRAK4 was determined as 4 nM. Further, in “Caco Permeability Assay”, the Papp at 2 h, 3 µM worked out at 8 ×10⁻⁶ cm/s.

`CC(C)Nc1cc(-c2cnn3cc(C#N)cnc23)ncc1C(=O)N[C@H]1CC[C@H](C(C)(C)O)CC1` [Example 104, 6-(6-cyanopyrazolo[1,5-a]pyrimidin-3-yl)-N-((1r,4r)-4-(2-hydroxypropan-2-yl)cyclohexyl)-4-(isopropylamino)nicotinamide] yielded an EC50 in data set [1] (Homo sapiens) of 800 nM. The IC50 on IRAK4 worked out at 7 nM. This compound also gave a Papp at 2 h, 3 µM in the data set “Caco Permeability Assay” of 16.2 ×10⁻⁶ cm/s.

`CC(C)(O)[C@H](F)CNC(=O)c1cnc(-c2cnn3cc(C#N)cnc23)cc1N[C@@H]1CCC[C@@H]1F` [Example 105, 6-(6-cyanopyrazolo[1,5-a]pyrimidin-3-yl)-N—((R)-2-fluoro-3-hydroxy-3-methylbutyl)-4-(((1R,2S)-2-fluorocyclopentyl)amino) nicotinamide] had an EC50 in data set [1] (Homo sapiens) of 240 nM. Moreover, at IRAK4, the IC50 amounted to 7 nM. Besides, the Papp at 2 h, 3 µM in the data set “Caco Permeability Assay” is 8.6 ×10⁻⁶ cm/s.

`CC(CCF)Nc1cc(-c2cnn3cc(C#N)cnc23)ncc1C(=O)NC[C@@H](F)C(C)(C)O` (stereo partly drawn) [Example 106, 6-(6-cyanopyrazolo[1,5-a]pyrimidin-3-yl)-N—((R)-2-fluoro-3-hydroxy-3-methylbutyl)-4-((4-fluorobutan-2-yl)amino)nicotinamide]: the EC50 in data set [1] (Homo sapiens) was 1030 nM. Also, the IC50 at IRAK4 is 4 nM. In the data set “Caco Permeability Assay”, this compound yielded an apparent permeability coefficient (Papp) at 2 h, 3 µM of 7 ×10⁻⁶ cm/s.

In data set [1] (Homo sapiens), `CNC(=O)c1ccc(Nc2cc(-c3cnn4cc(C#N)cnc34)ncc2C(=O)NC[C@@H](F)C(C)(C)O)cc1` [Example 110, (R)-6-(6-cyanopyrazolo[1,5-a]pyrimidin-3-yl)-N-(2-fluoro-3-hydroxy-3-methylbutyl)-4-((4-(methylcarbamoyl)phenyl)amino) nicotinamide] had an EC50 of 270 nM. Moreover, the IC50 at IRAK4 came out at 3 nM. Further, the apparent permeability (Papp) at 2 h, 3 µM in “Caco Permeability Assay” was below 1.5 ×10⁻⁶ cm/s.

Turning to `COc1cnc(N2CC[C@@H](Nc3cc(-c4cnn5cc(C#N)cnc45)ncc3C(=O)NC[C@@H](F)C(C)(C)O)C2)nc1` [Example 115, 6-(6-cyanopyrazolo[1,5-a]pyrimidin-3-yl)-N—((R)-2-fluoro-3-hydroxy-3-methylbutyl)-4-(((R)-1-(5-methoxypyrimidin-2-yl)pyrrolidin-3-yl)amino)nicotinamide], the midpoint of the response in data set [1] (Homo sapiens), the EC50, lay at 2030 nM. For the same compound, on IRAK4, the IC50 turned out to be 6 nM. Also, the Papp at 2 h, 3 µM in the data set “Caco Permeability Assay” is below 1.5 ×10⁻⁶ cm/s.

In data set [1] (Homo sapiens), `CC(C)Nc1cc(-c2cnn3cc(F)cnc23)ncc1C(=O)NC[C@@H](F)C(C)(C)O` [Example 130, (R)—N-(2-fluoro-3-hydroxy-3-methylbutyl)-6-(6-fluoropyrazolo[1,5-a]pyrimidin-3-yl)-4-(isopropylamino)nicotinamide] registered an EC50 of 1890 nM. Besides, at IRAK4, the half-maximal inhibitory concentration (IC50) stood at 17 nM. The compound further displayed an apparent permeability coefficient (Papp) at 2 h, 3 µM in “Caco Permeability Assay” of 22.1 ×10⁻⁶ cm/s.

`CC(C)(O)[C@H](F)CNC(=O)c1cnc(-c2cnc3cc(Cl)cnn23)cc1NC1COC1` [Example 141, (R)-6-(7-chloroimidazo[1,2-b]pyridazin-3-yl)-N-(2-fluoro-3-hydroxy-3-methylbutyl)-4-(oxetan-3-ylamino)nicotinamide] registered an EC50 in data set [1] (Homo sapiens) of 490 nM. Moreover, the IC50 at IRAK4 was found to be 4 nM. In addition, in the data set “Caco Permeability Assay”, the Papp at 2 h, 3 µM was determined as 5.2 ×10⁻⁶ cm/s.

Turning to `CC(C)Nc1cc(-c2cnc3cc(Cl)cnn23)ncc1C(=O)NC[C@@H](F)C(C)(C)O` [Example 142, (R)-6-(7-chloroimidazo[1,2-b]pyridazin-3-yl)-N-(2-fluoro-3-hydroxy-3-methylbutyl)-4-(isopropylamino)nicotinamide], the EC50 in data set [1] (Homo sapiens) is 100 nM. Besides, the IC50 at IRAK4 was determined as 3 nM. In addition, in the data set “Caco Permeability Assay”, the Papp at 2 h, 3 µM is 19 ×10⁻⁶ cm/s.

`CC(C)(O)[C@H](F)CNC(=O)c1cnc(-c2cnc3cc(Cl)cnn23)cc1NC1CCOCC1` [Example 143, (R)-6-(7-chloroimidazo[1,2-b]pyridazin-3-yl)-N-(2-fluoro-3-hydroxy-3-methylbutyl)-4-((tetrahydro-2H-pyran-4-yl)amino)nicotinamide]: a half-maximal response in data set [1] (Homo sapiens) (EC50) required 1080 nM. Also, on IRAK4, the IC50 was 2 nM. In “Caco Permeability Assay”, this compound yielded an apparent permeability coefficient (Papp) at 2 h, 3 µM of 8.2 ×10⁻⁶ cm/s.

`CC(C)(O)[C@H](F)CNC(=O)c1cnc(-c2cnc3cc(Cl)cnn23)cc1NC1CC1` [Example 144, (R)-6-(7-chloroimidazo[1,2-b]pyridazin-3-yl)-4-(cyclopropylamino)-N-(2-fluoro-3-hydroxy-3-methylbutyl)nicotinamide] showed a 50% effective concentration (EC50) in data set [1] (Homo sapiens) of 230 nM. Further, the IC50 on IRAK4 worked out at 3 nM. The compound further yielded an apparent permeability coefficient (Papp) at 2 h, 3 µM in the data set “Caco Permeability Assay” of 13.4 ×10⁻⁶ cm/s.

With `CC(C)Nc1cc(-c2cnc3cc(C#N)cnn23)ncc1C(=O)NC[C@@H](F)C(C)(C)O` [Example 145, (R)-6-(7-cyanoimidazo[1,2-b]pyridazin-3-yl)-N-(2-fluoro-3-hydroxy-3-methylbutyl)-4-(isopropylamino)nicotinamide], the EC50 in data set [1] (Homo sapiens) stood at 240 nM. Moreover, the IC50 at IRAK4 is 2 nM. In “Caco Permeability Assay”, this compound showed a Papp at 2 h, 3 µM of 12.3 ×10⁻⁶ cm/s.

As to `CC(C)(O)[C@H](F)CNC(=O)c1cnc(-c2cnc3cc(C#N)cnn23)cc1NC1CCOCC1` [Example 146, (R)-6-(7-cyanoimidazo[1,2-b]pyridazin-3-yl)-N-(2-fluoro-3-hydroxy-3-methylbutyl)-4-((tetrahydro-2H-pyran-4-yl)amino)nicotinamide], in data set [1] (Homo sapiens), the EC50 amounted to 150 nM. On IRAK4, the IC50 was found to be 2 nM. For the same compound, the Papp at 2 h, 3 µM in “Caco Permeability Assay” is below 1.5 ×10⁻⁶ cm/s.

For `CC(C)(O)[C@H](F)CNC(=O)c1cnc(-c2cnc3cc(C#N)cnn23)cc1NC1COC1` [Example 147, (R)-6-(7-cyanoimidazo[1,2-b]pyridazin-3-yl)-N-(2-fluoro-3-hydroxy-3-methylbutyl)-4-(oxetan-3-ylamino) nicotinamide], the response in data set [1] (Homo sapiens) was half-maximal at 90 nM (EC50). For the same compound, the IC50 at IRAK4 came to 3 nM. Further, in the data set “Caco Permeability Assay”, the apparent permeability (Papp) at 2 h, 3 µM is below 1.5 ×10⁻⁶ cm/s.

In data set [1] (Homo sapiens), `Cc1cnn2c(-c3cc(NC(C)C)c(C(=O)NC[C@@H](F)C(C)(C)O)cn3)cnc2c1` [Example 148, (R)—N-(2-fluoro-3-hydroxy-3-methylbutyl)-4-(isopropylamino)-6-(7-methylimidazo[1,2-b]pyridazin-3-yl)nicotinamide] showed an EC50 of 350 nM. Further, the IC50 on IRAK4 came to 7 nM. The compound further yielded a Papp at 2 h, 3 µM in “Caco Permeability Assay” of 8.9 ×10⁻⁶ cm/s.

`CC[C@H](F)CNc1cc(-c2cnn3cc(Cl)cnc23)ncc1C(=O)NC[C@@H](F)C(C)(C)O` [Example 158, 6-(6-chloropyrazolo[1,5-a]pyrimidin-3-yl)-N—((R)-2-fluoro-3-hydroxy-3-methylbutyl)-4-(((S)-2-fluorobutyl)amino)nicotinamide] returned an EC50 in data set [1] (Homo sapiens) of 870 nM. In addition, on IRAK4, the IC50 was 5 nM. Besides, the apparent permeability coefficient (Papp) at 2 h, 3 µM in “Caco Permeability Assay” turned out to be 14.8 ×10⁻⁶ cm/s.

`CC(C)(O)[C@H](F)CNC(=O)c1cnc(-c2cnn3cc(Cl)cnc23)cc1NCCC(F)(F)F` [Example 161, (R)-6-(6-chloropyrazolo[1,5-a]pyrimidin-3-yl)-N-(2-fluoro-3-hydroxy-3-methylbutyl)-4-((3,3,3-trifluoropropyl)amino)nicotinamide] returned an EC50 in data set [1] of 610 nM. For the same compound, on IRAK4, the IC50 was determined as 6 nM. In addition, in the data set “Caco Permeability Assay”, the Papp at 2 h, 3 µM is 15.3 ×10⁻⁶ cm/s.

For `CC(C)(O)[C@H](F)CNC(=O)c1cnc(-c2cnn3cc(Cl)cnc23)cc1NCC(F)F` [Example 163, (R)-6-(6-chloropyrazolo[1,5-a]pyrimidin-3-yl)-4-((2,2-difluoroethyl)amino)-N-(2-fluoro-3-hydroxy-3-methylbutyl) nicotinamide], the EC50 in data set [1] (Homo sapiens) was 760 nM. The IC50 at IRAK4 stood at 6 nM. In the data set “Caco Permeability Assay”, this compound displayed a Papp at 2 h, 3 µM of 19.1 ×10⁻⁶ cm/s.
